Assay results: patent publication EP0597029B1, “W/O MICROEMULSIONS” (SMITHKLINE BEECHAM CORPORATION, priority 1991, dated 1993)
Read-outs that look alike come from different tables or passages of the source.

Key:
[1] = Viscosity of microemulsions; type: physicochemical; conditions: aqueous phase = water; oil plus low HLB surfactant (3:1, 87%), high HLB surfactant (10%), aqueous (3%)
Text: (§1) All the microemulsions had oil plus low HLB surfactant (3:1, 87%), high HLB surfactant (10%) and aqueous (3%).

[2] = value in parentheses, from the CRC Handbook of Chemistry and Physics, 60th Edition; cited from earlier work
[3] = Refractive index of microemulsions; type: physicochemical; conditions: aqueous phase = water; oil plus low HLB surfactant (3:1, 87%), high HLB surfactant (10%), aqueous (3%)
Text: as §1

[4] = value in parentheses, from the CRC Handbook of Chemistry and Physics, 60th Edition; cited from earlier work; remark: listed apart in the source

**Q.** With `CCCCCCCC/C=C\CCCCCCCC(=O)O` [Oleic Acid] as the compound, how does the Viscosity [1] read?
**A.** The Viscosity was 23.4 centiPoise.

**Q.** And the Refractive index [2]?
**A.** The Refractive index was 1.4583.

**Q.** What about the Refractive index [3] of the same compound?
**A.** The Refractive index was 1.4582.

**Q.** What about the Viscosity [4] of the same compound?
**A.** The Viscosity was 25.6 centiPoise.
